Legend:
[1] = Prodrug conversion in human serum LPDS assessed as distribution of hydrolyzing activity measured per ml of serum at 10 uM in presence of Tris-HCl/Ca2+; format: ADME, cell-free
[2] = Prodrug conversion in recombinant human PON1 192RR mutant expressed in FreeStyle 293-F cells assessed as hydrolysis measured per mg of protein at 10 uM in presence of Zn2+; format: ADME, cell-based
[3] = Prodrug conversion in human serum LDL assessed as conversion velocity at 10 uM measured per mg of protein in presence of Tris-HCl/Ca2+; format: ADME, cell-free
[4] = Prodrug conversion in human serum LPDS assessed as distribution of hydrolyzing activity measured per ml of serum at 10 uM in presence of KPB; format: ADME, cell-free
[5] = molecular target: T1, Albumin (Homo sapiens, UniProt P02768); test: Prodrug conversion in human serum albumin assessed as hydrolysis measured per mg of protein at 10 uM in presence of Ca2+; format: ADME
T1 sequence (P02768 whole entry): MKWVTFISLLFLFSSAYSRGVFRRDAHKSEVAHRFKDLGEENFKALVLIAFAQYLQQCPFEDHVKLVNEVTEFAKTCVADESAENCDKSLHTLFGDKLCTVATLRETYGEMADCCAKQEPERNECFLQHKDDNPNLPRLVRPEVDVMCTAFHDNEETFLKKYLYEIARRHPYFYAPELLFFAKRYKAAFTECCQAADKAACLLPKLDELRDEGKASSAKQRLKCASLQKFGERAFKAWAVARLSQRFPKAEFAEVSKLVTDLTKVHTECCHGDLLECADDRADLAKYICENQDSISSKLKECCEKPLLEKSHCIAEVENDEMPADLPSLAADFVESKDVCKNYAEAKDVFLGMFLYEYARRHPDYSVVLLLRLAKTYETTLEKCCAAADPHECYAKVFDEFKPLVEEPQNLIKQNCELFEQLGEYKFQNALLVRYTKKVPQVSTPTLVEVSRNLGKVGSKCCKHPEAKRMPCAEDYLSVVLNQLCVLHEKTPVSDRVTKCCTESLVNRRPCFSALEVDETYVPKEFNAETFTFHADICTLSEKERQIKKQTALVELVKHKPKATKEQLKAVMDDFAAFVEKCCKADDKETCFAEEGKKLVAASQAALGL

[6] = Prodrug conversion in recombinant human PON1 192QQ mutant expressed in FreeStyle 293-F cells assessed as hydrolysis measured per mg of protein at 10 uM in presence of Ca2+; format: ADME, cell-based
[7] = test system: Plasma; test: Prodrug conversion in human plasma assessed as hydrolysis measured per mg of protein at 10 uM in presence of Zn2+; format: ADME, cell-free
[8] = Prodrug conversion in recombinant human PON1 192QQ mutant expressed in FreeStyle 293-F cells assessed as hydrolysis measured per mg of protein at 10 uM in presence of Zn2+; format: ADME, cell-based
[9] = test system: Plasma; test: Prodrug conversion in human plasma assessed as hydrolysis measured per mg of protein by single-enzyme Michaelis-Menten model; format: ADME, cell-free
[10] = Prodrug conversion in human serum LPDS assessed as conversion velocity per mg of protein at 10 uM in presence of KPB; format: ADME, cell-free
[11] = Prodrug conversion in recombinant human PON1 192RR mutant expressed in FreeStyle 293-F cells assessed as hydrolysis measured per mg of protein at 10 uM in presence of Ca2+; format: ADME, cell-based
[12] = Prodrug conversion in recombinant human PON1 192RR mutant expressed in FreeStyle 293-F cells assessed as hydrolysis by single-enzyme Michaelis-Menten model; format: ADME, cell-based
[13] = Ratio of Vmax to Km in recombinant human PON1 192RR mutant expressed in FreeStyle 293-F cells assessed as hydrolysis measured per mg of protein by single-enzyme Michaelis-Menten model; format: ADME, cell-based
[14] = test system: Plasma; test: Prodrug conversion in human plasma assessed as hydrolysis measured per mg of protein at 10 uM in presence of Mg2+; format: ADME, cell-free
[15] = Prodrug conversion in recombinant human PON1 192QQ mutant expressed in FreeStyle 293-F cells measured per mg of protein by single-enzyme Michaelis-Menten model; format: ADME, cell-based
[16] = Prodrug conversion in recombinant human PON1 192RR mutant expressed in FreeStyle 293-F cells assessed as hydrolysis measured per mg of protein at 10 uM in presence of Mg2+; format: ADME, cell-based
[17] = test system: Plasma; test: Prodrug conversion in human plasma assessed as hydrolysis in presence of 4 fold anti-PON1 IgG/plasma ratio; format: ADME
[18] = Prodrug conversion in recombinant human PON1 192QQ mutant expressed in FreeStyle 293-F cells assessed as hydrolysis measured per mg of protein at 10 uM in presence of Mg2+; format: ADME, cell-based
[19] = Prodrug conversion in human serum LPDS assessed as conversion velocity per mg of protein at 10 uM in presence of Tris-HCl/Ca2+; format: ADME, cell-free
[20] = molecular target: T1, Albumin; test: Prodrug conversion in human serum albumin assessed as hydrolysis measured per mg of protein at 10 uM in presence of Mg2+; format: ADME
[21] = Prodrug conversion in human serum HDL assessed as distribution of hydrolyzing activity measured per ml of serum at 10 uM in presence of Tris-HCl/Ca2+; format: ADME, cell-free
[22] = test system: Plasma; test: Prodrug conversion in human plasma assessed as hydrolysis by single-enzyme Michaelis-Menten model; format: ADME, cell-free
[23] = test system: Plasma; test: Ratio of Vmax to Km in human plasma assessed as hydrolysis measured per mg of protein by single-enzyme Michaelis-Menten model; format: ADME
[24] = test system: Plasma; test: Prodrug conversion in human plasma assessed as hydrolysis measured per mg of protein at 10 uM in presence of Ca2+; format: ADME, cell-free
[25] = molecular target: T1, Albumin; test: Ratio of Vmax to Km in human serum albumin assessed as hydrolysis measured per mg of protein by single-enzyme Michaelis-Menten model; format: ADME
[26] = Ratio of Vmax to Km in recombinant human PON1 192QQ mutant expressed in FreeStyle 293-F cells assessed as hydrolysis measured per mg of protein by single-enzyme Michaelis-Menten model; format: ADME, cell-based
[27] = Prodrug conversion in human serum HDL assessed as conversion velocity per mg of protein at 10 uM in presence of Tris-HCl/Ca2+; format: ADME, cell-free
[28] = Prodrug conversion in human serum LDL assessed as distribution of hydrolyzing activity measured per ml of serum at 10 uM in presence of Tris-HCl/Ca2+; format: ADME, cell-free
[29] = molecular target: T1, Albumin; test: Prodrug conversion in human serum albumin assessed as hydrolysis measured per mg of protein at 10 uM in presence of Zn2+; format: ADME
[30] = Prodrug conversion in human serum VLDL and chylomicron assessed as conversion velocity at 10 uM measured per mg of protein in presence of Tris-HCl/Ca2+; format: ADME, cell-free
[31] = Prodrug conversion in recombinant human PON1 192RR mutant expressed in FreeStyle 293-F cells measured per mg of protein by single-enzyme Michaelis-Menten model; format: ADME, cell-based
[32] = Prodrug conversion in recombinant human PON1 192QQ mutant expressed in FreeStyle 293-F cells assessed as hydrolysis by single-enzyme Michaelis-Menten model; format: ADME, cell-based
[33] = Prodrug conversion in human serum VLDL and chylomicron assessed as distribution of hydrolyzing activity measured per ml of serum at 10 uM in presence of Tris-HCl/Ca2+; format: ADME, cell-free
[34] = test system: CCCc1nc(C(C)(C)O)c(C(=O)OCc2oc(=O)oc2C)n1Cc1ccc(-c2ccccc2-c2nnn[nH]2)cc1; test: Prodrug conversion in human serum albumin assessed as hydrolysis by single-enzyme Michaelis-Menten model; format: ADME

Compound `CCCc1nc(C(C)(C)O)c(C(=O)OCc2oc(=O)oc2C)n1Cc1ccc(-c2ccccc2-c2nnn[nH]2)cc1` [OLMESARTAN MEDOXOMIL] has an Activity [1] of 35.6 nmol/min, an Activity [2] of 1.75 nmol/min and an Activity [3] of 12.6 nmol/min. It also gave an Activity [4] of 9.04 nmol/min, an Activity [5] of 0.0102 nmol/min and an Activity [6] of 9.5 nmol/min. For the same compound, the Activity [7] was 0.0918 nmol/min, the Activity [8] was 0.75 nmol/min and the Vmax [9] was 18.6 nmol/min. It also gave an Activity [10] of 0.131 nmol/min, an Activity [11] of 20.6 nmol/min and a Km [12] of 102 µM. For the same compound, the Vmax/Km [13] was 1.37 mL/min, the Activity [14] was 0.266 nmol/min and the Vmax [15] was 124 nmol/min. For the same compound, the Activity [16] was 2.25 nmol/min, the Drug metabolism [17] was “metabolite_not_detected” and the Activity [18] was 0.65 nmol/min. It also gave an Activity [19] of 0.516 nmol/min, an Activity [20] of 0.0106 nmol/min and an Activity [21] of 596 nmol/min. The Km [22] was 6.71 µM, the Vmax/Km [23] was 2.77 mL/min and the Activity [24] was 7.91 nmol/min. The Vmax/Km [25] was 0.00737 mL/min, the Vmax/Km [26] was 0.79 mL/min and the Activity [27] was 277 nmol/min. It also gave an Activity [28] of 4.07 nmol/min, an Activity [29] of 0.0164 nmol/min and an Activity [30] of 13.9 nmol/min. For the same compound, the Vmax [31] was 140 nmol/min, the Km [32] was 157 µM and the Activity [33] was 2.42 nmol/min.

Compound Albumin (Homo sapiens) has a Km [34] of 354 µM and a Vmax [34] of 0.00261 µmol/min.

Source: ChEMBL document CHEMBL3525929, “Paraoxonase 1 as a major bioactivating hydrolase for olmesartan medoxomil in human blood circulation: molecular identification and contribution to plasma metabolism” (Drug Metab Dispos, 2012)
